Measurements taken from patent EP4768484A1, “HETEROCYCLIC FUSED RING COMPOUND, AND COMPOSITION AND USE THEREOF” (Shenzhen TargetRx, Inc., priority 2023, dated 2025).

Legend:
Type in all cases: cell-based
[1] = target: T1, Ba/F3 BCR-ABL1 T315M (Homo sapiens, UniProt P00519+P11274, T315M); assay: Cell growth inhibitory activity assay (CellTiter-Glo), Ba/F3 BCR-ABL1 T315M cells; conditions: 72 h, CTG cell viability
T1 construct: BCR (N-terminal fusion partner of the oncoprotein); expressed in transfected cells; host or cells: Ba/F3 (lentiviral transduction, monoclonal line)
Experimental: (§1) In this assay, the Celltiter-Glo (CTG) kit provided by Promega was used, and it is a homogeneous cell viability assay method. The cell viability of cultured cells was measured by quantifying ATP. K562 cells were purchased from Nanjing Kebai, product number CBP60529; Ba/F3 parental cells were purchased from RIKEN BRC, product number RCB0805; other cells containing BCR-ABL1 WT, BCR-ABL1 T315I, BCR-ABL1 T315M, BCR-ABL1 Y253H/E255K, BCR-ABL1 E255V/T3151, BCR-ABL1 A424T, BCR-ABL1 A337V, BCR-ABL1 P465S, BCR-ABL1 V468F, and BCR-ABL1 I502L were all monoclonal engineered cell lines obtained by transducting Ba/F3 parental cells with the lentivirus plasmids containing WT or corresponding mutated BCR-ABL1.
(§2) The steps of cell viability assay are as follows: • a) Cells in logarithmic growth phase were collected. Cell suspension was prepared and the cells were counted. Concentration of the cells was calculated. • b) The cell suspension was diluted to the required concentration and then added to the middle wells of a 96-well plate, and PBS was added to the edge wells. The wells with no cells and only culture medium were used as blank controls. • c) In addition to the cell plate used for compound analysis, another 96-well plate was prepared as a T0 plate, and 3-6 blank wells and 3-6 cell wells were added. The next day, CTG was used to test the cell viability as the T0 viability value of the cells. • d) The cell plate was incubated at 37 °C in a 5% CO2 incubator overnight. • e) The next day, each concentration of a compound subjected to a gradient dilution was added, and the cell plate was incubated at 37 °C in a 5% CO2 incubator for 72 h. The wells with no compound and only 0.5% DMSO were used as positive controls for cell growth. • f) CTG reagent (CellTiter-Glo kit) was added according to the manufacturer's instructions to test the cell viability value. • g) The plate was read using Biotek cytation3.0 microplate reader and the data were exported. • h) IC50 was calculated using GraphPad Prism 7.0 software.
(§3) The IC50 (half-maximal inhibitory concentration) of the compound was obtained using the following nonlinear fitting formula: Y = Bottom + (Top−Bottom)/(1+10^(∧)((LogIC50−X)*HillSlope)) [formula] • X: Log value of the compound concentration • Y: Inhibition rate (% inhibition) • Top: Maximum response • Bottom: Baseline response • HillSlope: Slope of the curve
(§4) The formula for calculating cell inhibition rate (inhibition rate %) was: [formula]

[2] = target: T2, Ba/F3 BCR-ABL1 V468F (Homo sapiens, UniProt P00519+P11274, V468F); assay: Cell growth inhibitory activity assay (CellTiter-Glo), Ba/F3 BCR-ABL1 V468F cells; conditions: 72 h, CTG cell viability
T2 construct: BCR (N-terminal fusion partner of the oncoprotein); expressed in transfected cells; host or cells: Ba/F3 (lentiviral transduction, monoclonal line)
Experimental: as §1, §2, §3, §4

[3] = tested on: Ba/F3 parental cells; assay: Cell growth inhibitory activity assay (CellTiter-Glo), Ba/F3 parental cells; conditions: Mus musculus, BaF3, 72 h, CTG cell viability, read-out: IC50 Ba/F3 BCR-ABL1 Parental
How it was run: (§5)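 Ba/F3 lines stably transduced by lentivirus with WT or mutant BCR-ABL1, alongside untransduced parental Ba/F3, were seeded and incubated overnight at 37 °C, 5% CO2, then exposed to serially diluted compound for 72 h. Viability was read as ATP by CellTiter-Glo luminescence against a day-of-dosing T0 plate; IC50 from four-parameter nonlinear fit.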

[4] = target: T3, Ba/F3 BCR-ABL1 I502L (Homo sapiens, UniProt P00519+P11274, I502L); assay: Cell growth inhibitory activity assay (CellTiter-Glo), Ba/F3 BCR-ABL1 I502L cells; conditions: 72 h, CTG cell viability
T3 construct: BCR (N-terminal fusion partner of the oncoprotein); expressed in transfected cells; host or cells: Ba/F3 (lentiviral transduction, monoclonal line)
Experimental: as §1, §2, §3, §4

[5] = target: T4, Ba/F3 BCR-ABL1 WT (Homo sapiens, UniProt P00519+P11274); assay: Cell growth inhibitory activity assay (CellTiter-Glo), Ba/F3 BCR-ABL1 WT cells; conditions: 72 h, CTG cell viability
T4 construct: BCR (N-terminal fusion partner of the oncoprotein); expressed in transfected cells; host or cells: Ba/F3 (lentiviral transduction, monoclonal line)
How it was run: as §5

[6] = target: T5, Ba/F3 BCR-ABL1 E255V/T315I (Homo sapiens, UniProt P00519+P11274, E255V/T315I); assay: Cell growth inhibitory activity assay (CellTiter-Glo), Ba/F3 BCR-ABL1 E255V/T315I cells; conditions: 72 h, CTG cell viability
T5 construct: BCR (N-terminal fusion partner of the oncoprotein); expressed in transfected cells; host or cells: Ba/F3 (lentiviral transduction, monoclonal line)
Experimental: as §1, §2, §3, §4

[7] = tested on: K562 cells; assay: Cell growth inhibitory activity assay (CellTiter-Glo), K562 cells; conditions: Homo sapiens, 72 h, CTG cell viability
How it was run: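 Growth inhibition of human K562 cells, sourced from Nanjing Kebai (CBP60529), was assessed with Promega's CellTiter-Glo kit, which measures viability through ATP quantification. Log-phase cells went into the inner wells of 96-well plates, with PBS in edge wells, incubated overnight at 37 °C and 5% CO2, then exposed to serially diluted compound for 72 h.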

[8] = target: T6, Ba/F3 BCR-ABL1 A337V (Homo sapiens, UniProt P00519+P11274, A337V); assay: Cell growth inhibitory activity assay (CellTiter-Glo), Ba/F3 BCR-ABL1 A337V cells; conditions: 72 h, CTG cell viability
T6 construct: BCR (N-terminal fusion partner of the oncoprotein); expressed in transfected cells; host or cells: Ba/F3 (lentiviral transduction, monoclonal line)
Experimental: as §1, §2, §3, §4

[9] = target: T7, Ba/F3 BCR-ABL1 A424T (Homo sapiens, UniProt P00519+P11274, A424T); assay: Cell growth inhibitory activity assay (CellTiter-Glo), Ba/F3 BCR-ABL1 A424T cells; conditions: 72 h, CTG cell viability
T7 construct: BCR (N-terminal fusion partner of the oncoprotein); expressed in transfected cells; host or cells: Ba/F3 (lentiviral transduction, monoclonal line)
Experimental: as §1, §2, §3, §4

[10] = target: T8, Ba/F3 BCR-ABL1 T315I (Homo sapiens, UniProt P00519+P11274, T315I); assay: Cell growth inhibitory activity assay (CellTiter-Glo), Ba/F3 BCR-ABL1 T315I cells; conditions: 72 h, CTG cell viability
T8 construct: BCR (N-terminal fusion partner of the oncoprotein); expressed in transfected cells; host or cells: Ba/F3 (lentiviral transduction, monoclonal line)
How it was run: as §5

[11] = target: T9, Ba/F3 BCR-ABL1 P465S (Homo sapiens, UniProt P00519+P11274, P465S); assay: Cell growth inhibitory activity assay (CellTiter-Glo), Ba/F3 BCR-ABL1 P465S cells; conditions: 72 h, CTG cell viability
T9 construct: BCR (N-terminal fusion partner of the oncoprotein); expressed in transfected cells; host or cells: Ba/F3 (lentiviral transduction, monoclonal line)
Experimental: as §1, §2, §3, §4

[12] = target: T10, Ba/F3 BCR-ABL1 Y253H/E255K (Homo sapiens, UniProt P00519+P11274, E255K/Y253H); assay: Cell growth inhibitory activity assay (CellTiter-Glo), Ba/F3 BCR-ABL1 Y253H/E255K cells; conditions: 72 h, CTG cell viability
T10 construct: BCR (N-terminal fusion partner of the oncoprotein); expressed in transfected cells; host or cells: Ba/F3 (lentiviral transduction, monoclonal line)
Experimental: as §1, §2, §3, §4

Which results are given for `C[C@@H]1COCc2nc3cc(C(=O)Nc4ccc(OC(F)(F)Cl)cc4)cc(-c4cnc5c(c4)-c4nn(S(C)(=O)=O)cc4C5)c3n21` [T-42, (R)-N-(4-(chlorodifluoromethoxy)phenyl)-4-methyl-6-(2-(methylsulfonyl)-2,4-dihydropyrazolo[3',4':3,4]cyclopenta[1,2-b]pyridin-7-yl)-3,4-dihydro-1H-benzo[4,5]imidazo[2,1-c][1,4]oxazine-8-carboxamide]?
IC50 [1]: 50 to 1000 nM; IC50 [2]: 50 to 1000 nM; IC50 [3]: > 1000 nM; IC50 [4]: 50 to 1000 nM; IC50 [5]: ≤ 5 nM; IC50 [6]: 50 to 1000 nM; IC50 [7]: ≤ 5 nM; IC50 [8]: 50 to 1000 nM; IC50 [9]: 50 to 1000 nM; IC50 [10]: 5 to 50 nM; IC50 [11]: 50 to 1000 nM; IC50 [12]: 50 to 1000 nM

Which IC50 [1] does the source give for `C[C@@H]1COCc2nc3cc(C(=O)Nc4ccc(OC(F)(F)Cl)cc4)cc(-c4cnc5c(c4)-c4nn(-c6ncc(F)cn6)cc4C5)c3n21` [T-68, (R)-N-(4-(chlorodifluoromethoxy)phenyl)-6-(2-(5-fluoropyrimidin-2-yl)-2,4-dihydropyrazolo[3',4':3,4]cyclopenta[1,2-b]pyridin-7-yl)-4-methyl-3,4-dihydro-1H-benzo[4,5]imidazo[2,1-c][1,4]oxazine-8-carboxamide] here?
Its IC50 is no more than 5 nM.

What about the IC50 [2] of the same compound?
Its IC50 is 5 to 50 nM.

And the IC50 [3]?
Its IC50 is greater than 1000 nM.

And the IC50 [4]?
The IC50 was no more than 5 nM.

And the IC50 [5]?
The IC50 was no more than 5 nM.

And the IC50 [7]?
Its IC50 is no more than 5 nM.

And the IC50 [8]?
The IC50 was 5 to 50 nM.

What about the IC50 [9] of the same compound?
Its IC50 is no more than 5 nM.

And the IC50 [10]?
Its IC50 is no more than 5 nM.

What about the IC50 [11] of the same compound?
The IC50 was 5 to 50 nM.

What does the source list for `CC(C)n1cnc2cc(C(=O)Nc3ccc(OC(F)(F)Cl)cc3)cc(-c3cnc4c(c3)C(=O)N(C)C4)c21` [T-2, N-(4-(chlorodifluoromethoxy)phenyl)-1-isopropyl-7-(6-methyl-5-oxo-6,7-dihydro-5H-pyrrolo[3,4-b]pyridin-3-yl)-1H-benzo[d]imidazole-5-carboxamide]?
IC50 [2]: 50 to 1000 nM; IC50 [3]: > 1000 nM; IC50 [4]: 50 to 1000 nM; IC50 [5]: ≤ 5 nM; IC50 [6]: 5 to 50 nM; IC50 [7]: ≤ 5 nM; IC50 [8]: 50 to 1000 nM; IC50 [9]: 50 to 1000 nM; IC50 [10]: 5 to 50 nM; IC50 [11]: 50 to 1000 nM

`CN1Cc2ncc(-c3cc(C(=O)Nc4ccc(OC(F)(F)Cl)cc4)cc4c3C(C)(C)C(=O)N4)cc2C1=O` [T-7, N-(4-(chlorodifluoromethoxy)phenyl)-3,3-dimethyl-4-(6-methyl-5-oxo-6,7-dihydro-5H-pyrrolo[3,4-b]pyridin-3-yl)-2-oxoindoline-6-carboxamide] was tested. Which IC50 [2] did it give?
The IC50 was 50 to 1000 nM.

And the IC50 [3]?
Its IC50 is greater than 1000 nM.

What about the IC50 [4] of the same compound?
The IC50 was 50 to 1000 nM.

What about the IC50 [5] of the same compound?
The IC50 was no more than 5 nM.

And the IC50 [6]?
Its IC50 is 5 to 50 nM.

What about the IC50 [7] of the same compound?
The IC50 was no more than 5 nM.

What about the IC50 [8] of the same compound?
Its IC50 is greater than 1000 nM.

What about the IC50 [9] of the same compound?
The IC50 was greater than 1000 nM.

What about the IC50 [10] of the same compound?
The IC50 was 5 to 50 nM.

What about the IC50 [11] of the same compound?
The IC50 was greater than 1000 nM.

What does the source list for `C[C@@H]1COCc2nc3cc(C(=O)Nc4ccc(OC(F)(F)Cl)cc4)cc(-c4cnc5c(c4)-c4n[nH]cc4C5)c3n21` [T-3, (R)-N-(4-(chlorodifluoromethoxy)phenyl)-6-(2,4-dihydropyrazolo[3',4':3,4]cyclopenta[1,2-b]pyridin-7-yl)-4-methyl-3,4-dihydro-1H-benzo[4,5]imidazo[2,1-c][1,4]oxazine-8-carboxamide]?
IC50 [1]: 50 to 1000 nM; IC50 [2]: 5 to 50 nM; IC50 [3]: > 1000 nM; IC50 [4]: 5 to 50 nM; IC50 [5]: ≤ 5 nM; IC50 [6]: ≤ 5 nM; IC50 [7]: ≤ 5 nM; IC50 [8]: 5 to 50 nM; IC50 [9]: 5 to 50 nM; IC50 [10]: ≤ 5 nM; IC50 [11]: 5 to 50 nM; IC50 [12]: ≤ 5 nM
